{"source": "paper PMC12630027", "about": "“RALGEF inhibitors suppress RAS-driven pancreatic cancer and metastasis” (The Journal of Biological Chemistry, 2025)", "key": {"[1]": {"target": "T1, full-length RALGDS recombinant protein (Homo sapiens, UniProt Q12967)", "T1 construct": "full length, purified recombinant, purchased from Genscript Biotech", "T1 sequence (Q12967 1-914)": "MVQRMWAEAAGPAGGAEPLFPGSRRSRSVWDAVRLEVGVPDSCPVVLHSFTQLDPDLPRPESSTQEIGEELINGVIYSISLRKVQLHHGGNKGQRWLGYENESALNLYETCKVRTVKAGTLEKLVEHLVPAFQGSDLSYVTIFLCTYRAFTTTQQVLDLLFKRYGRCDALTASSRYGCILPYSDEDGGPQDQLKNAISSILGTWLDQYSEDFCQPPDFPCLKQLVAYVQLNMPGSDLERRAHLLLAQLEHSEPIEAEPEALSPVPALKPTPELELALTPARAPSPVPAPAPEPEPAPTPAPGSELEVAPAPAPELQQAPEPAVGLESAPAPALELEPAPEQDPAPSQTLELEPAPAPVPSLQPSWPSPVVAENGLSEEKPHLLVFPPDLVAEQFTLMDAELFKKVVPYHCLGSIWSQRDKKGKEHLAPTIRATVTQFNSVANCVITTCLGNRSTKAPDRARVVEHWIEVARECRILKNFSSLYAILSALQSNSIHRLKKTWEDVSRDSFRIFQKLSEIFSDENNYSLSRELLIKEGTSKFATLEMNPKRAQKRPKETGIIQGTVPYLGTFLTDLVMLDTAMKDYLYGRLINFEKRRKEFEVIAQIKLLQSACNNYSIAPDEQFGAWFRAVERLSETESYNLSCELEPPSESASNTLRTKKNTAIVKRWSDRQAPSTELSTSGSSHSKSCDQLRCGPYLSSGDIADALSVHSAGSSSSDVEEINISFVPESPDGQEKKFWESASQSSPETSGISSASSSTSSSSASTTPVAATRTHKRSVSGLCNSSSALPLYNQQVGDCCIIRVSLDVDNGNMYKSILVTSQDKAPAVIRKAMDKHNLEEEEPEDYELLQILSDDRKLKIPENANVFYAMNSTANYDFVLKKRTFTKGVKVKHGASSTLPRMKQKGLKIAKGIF", "assay": "analytical ultracentrifugation", "assay_type": "binding"}, "[2]": {"target": "T2, GFP-tagged RALGDS (Homo sapiens, UniProt Q12967)", "T2 construct": "full length, GFP-tagged, plasmid gift of CJ Der, expressed in HEK-293, lysate", "assay": "co-immunoprecipitation of H-RAS12V from mixed HEK-293 lysates, Western blot", "assay_type": "biochemical", "conditions": "20 μM (figure legend; 10 μM in methods), HA-H-RAS12V partner, pH 7.5, room temperature; inhibition of RAS/RALGEF complex"}, "[3]": {"target": "T3, RGL2 (also known as Rlf) (Homo sapiens, UniProt O15211)", "T3 construct": "full length, GFP-tagged, plasmid gift of CJ Der, expressed in HEK-293, lysate", "assay": "co-immunoprecipitation of H-RAS12V from mixed HEK-293 lysates, Western blot", "assay_type": "biochemical", "conditions": "20 μM (figure legend; 10 μM in methods), HA-H-RAS12V partner, pH 7.5, room temperature; inhibition of RAS/RALGEF complex"}, "[4]": {"target": "T4, RGL3 (Homo sapiens, UniProt Q3MIN7)", "T4 construct": "Flag-tagged, construct purchased from Genscript, expressed in HEK-293, lysate", "assay": "co-immunoprecipitation of H-RAS12V from mixed HEK-293 lysates, Western blot", "assay_type": "biochemical", "conditions": "20 μM (figure legend; 10 μM in methods), HA-H-RAS12V partner, pH 7.5, room temperature; inhibition of RAS/RALGEF complex"}, "[5]": {"target": "T5, isolated RA domain of RALGDS", "T5 construct": "isolated RAS association (RA) domain, C-terminal; fluorescently labelled", "assay": "microscale thermophoresis, one-site model", "conditions": "50 nM fluorescently labelled RALGDS RA domain, 5% DMSO; average of four experiments; compound solubility may have compromised the assay; read-out: binding affinity", "excerpt": "microscale thermophoresis, one-site model on isolated RA domain of RALGDS | obtained binding affinities in the low μM range"}}, "note": "pKd: −log10 of the molar value."}
{"smiles": "COc1cccc(CNc2nc(CNCc3cccc(F)c3)nc3sc(C)c(C)c23)c1", "note": "[C4-180]", "values": [{"measurement": "pKd", "setting": "[1]", "result": "~6.00"}, {"measurement": "co-immunoprecipitation of H-RAS12V from mixed HEK-293 lysates, Western blot", "setting": "[2]", "result": "C4-180 was noticably better at suppressing the interaction of RAS with RALGDS and RGL2"}, {"measurement": "co-immunoprecipitation of H-RAS12V from mixed HEK-293 lysates, Western blot", "setting": "[3]", "result": "C4-180 was noticably better at suppressing the interaction of RAS with RALGDS and RGL2"}, {"measurement": "co-immunoprecipitation of H-RAS12V from mixed HEK-293 lysates, Western blot", "setting": "[4]", "result": "C4-180 could act on RALGDS, RGL2 and RGL3 family members"}, {"measurement": "pKd", "setting": "[5]", "result": 5.59}]}
{"smiles": "COc1cccc(CNc2nc(CN(C)Cc3cccc(OC)c3)nc3sc(C)c(C)c23)c1", "note": "[C4]", "values": [{"measurement": "co-immunoprecipitation of H-RAS12V from mixed HEK-293 lysates, Western blot", "setting": "[2]", "result": "The complex formation was suppressed."}, {"measurement": "co-immunoprecipitation of H-RAS12V from mixed HEK-293 lysates, Western blot", "setting": "[3]", "result": "The complex formation was suppressed."}]}
